Experimental data published in patent publication US20230416227A1, “PLASMA KALLIKREIN INHIBITORS” (Merck Sharp & Dohme LLC, priority 2020, published 2023).

Assays:
Human plasma kallikrein = biological target: T1, Human plasma kallikrein (Homo sapiens, UniProt P03952); assay: Plasma Kallikrein Assay; format: biochemical; details: purified Human plasma kallikrein 0.5 nM, substrate Acetyl-K-P-R-AFC, pH 7.4
T1 construct: yields a heavy chain (371 amino acids) and a light chain (248 amino acids); purchased Enzyme Research Laboratories

human factor XIa = human factor XIa (Homo sapiens, UniProt P03951); assay: Factor XIa Assay; format: biochemical; details: human factor XIa 0.04 nM, substrate GPR-AFC, 30 min pre-incubation at 25° C., pH 7.4; read-out: FXIa IC50
Protocol: The effectiveness of a compound of the present invention as an inhibitor of Coagulation factor XIa can be determined using a relevant purified serine protease, and an appropriate synthetic substrate. The rate of hydrolysis of the chromogenic or fluorogenic substrate by the relevant serine protease was measured both in the absence and presence of compounds of the present invention. Assays were conducted at rt or at 37° C. […] A decrease in the rate of fluorescence change in the presence of inhibitor is indicative of enzyme inhibition. Such methods are known to one skilled in the art. The results of this assay are expressed as the half-maximal inhibitory concentrations (IC50), or the inhibitory constant, Ki.
Compounds were pre-incubated for 30 min at 25° C. with human (0.04 nM) factor XIa in 50 mM HEPES buffer with 150 mM sodium chloride, 5 mM calcium chloride, 0.1% PEG 8000, pH 7.4. factor XIa enzymatic activity was determined by addition of the substrate glycine-proline-arginine-7-amido-4-trifluoromethylcoumarin (GPR-AFC) and measurement of the fluorescence at 400/505 nm after a 60 min incubation at 25° C. The % inhibition for each data point was calculated from the data and analyzed using the log (inhibitor) vs. response four parameters equation to determine the half-maximal inhibitory concentrations (IC50). The IC50 were converted to equilibrium inhibitory constants (Ki) using the Cheng-Prusoff equation.

T1 sequence (P03952 391-638 limits assumed): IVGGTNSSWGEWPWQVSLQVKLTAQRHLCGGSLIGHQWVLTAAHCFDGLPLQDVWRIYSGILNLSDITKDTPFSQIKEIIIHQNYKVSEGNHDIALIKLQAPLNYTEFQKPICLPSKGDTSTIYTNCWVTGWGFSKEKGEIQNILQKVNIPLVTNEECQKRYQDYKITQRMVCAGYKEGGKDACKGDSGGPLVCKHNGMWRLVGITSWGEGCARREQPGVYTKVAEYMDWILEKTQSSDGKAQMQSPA
T1 sequence (P03952 20-390 partner limits assumed): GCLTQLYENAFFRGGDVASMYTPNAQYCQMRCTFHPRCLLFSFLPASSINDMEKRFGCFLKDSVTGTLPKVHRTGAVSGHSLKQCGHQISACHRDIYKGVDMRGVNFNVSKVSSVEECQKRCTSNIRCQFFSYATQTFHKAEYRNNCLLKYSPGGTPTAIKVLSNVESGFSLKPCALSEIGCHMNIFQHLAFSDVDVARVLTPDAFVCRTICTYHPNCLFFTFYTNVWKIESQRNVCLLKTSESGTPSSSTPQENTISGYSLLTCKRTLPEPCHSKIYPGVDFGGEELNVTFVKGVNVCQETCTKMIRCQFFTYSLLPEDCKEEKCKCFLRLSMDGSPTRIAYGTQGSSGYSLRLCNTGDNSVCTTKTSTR
human factor XIa, sequence (P03951 388-625 limits assumed): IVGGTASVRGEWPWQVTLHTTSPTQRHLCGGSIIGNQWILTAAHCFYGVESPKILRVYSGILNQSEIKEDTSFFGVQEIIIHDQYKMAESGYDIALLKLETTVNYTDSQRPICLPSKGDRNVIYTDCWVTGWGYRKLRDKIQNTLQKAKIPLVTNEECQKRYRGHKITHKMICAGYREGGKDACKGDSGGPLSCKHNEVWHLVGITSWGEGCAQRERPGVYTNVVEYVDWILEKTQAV
human factor XIa, sequence (P03951 19-387 partner limits assumed): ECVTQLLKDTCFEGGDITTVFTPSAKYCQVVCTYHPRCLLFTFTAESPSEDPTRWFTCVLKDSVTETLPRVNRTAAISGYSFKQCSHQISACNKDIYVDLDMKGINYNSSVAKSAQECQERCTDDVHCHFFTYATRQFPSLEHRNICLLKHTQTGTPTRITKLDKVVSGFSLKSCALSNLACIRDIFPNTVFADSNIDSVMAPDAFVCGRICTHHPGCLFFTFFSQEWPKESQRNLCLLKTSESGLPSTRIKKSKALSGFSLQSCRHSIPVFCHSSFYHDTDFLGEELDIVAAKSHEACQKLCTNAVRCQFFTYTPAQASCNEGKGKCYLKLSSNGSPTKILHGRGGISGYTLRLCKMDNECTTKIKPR

Row | IC50 (Human plasma kallikrein) [µM] | IC50 (human factor XIa) [µM] | Compound
1 | 0.0074 | 3.94 | NCC1CCCN1c1ncc(Cn2cc(NC(=O)c3cncc(-c4c(C(F)F)ccc(Cl)c4F)n3)cn2)cn1 (stereo not shown) [Example 81, N-(1-((2-(2-(Aminomethyl)pyrrolidin-1-yl)pyrimidin-5-yl)methyl)-1H-pyrazol-4-yl)-6-(3-chloro-6-(difluoromethyl)-2-fluorophenyl)pyrazine-2-carboxamide]
2 | 0.0212 | 4.1 | O=C(O)c1ncc(-c2c(C(F)F)ccc(Cl)c2F)nc1C(=O)Nc1cnn(Cc2cnc(N3CCC3)nc2)c1 [Example 137, 3-((1-((2-(Azetidin-1-yl)pyrimidin-5-yl)methyl)-1H-pyrazol-4-yl)carbamoyl)-5-(3-chloro-6-(difluoromethyl)-2-fluorophenyl)pyrazine-2-carboxylic acid]
3 | 0.0094 | 8.08 | CC(c1cnc(N2Cc3cccnc3C2)nc1)n1cc(NC(=O)c2cncc(-c3c(C(F)F)ccc(Cl)c3F)n2)cn1 (stereo not shown) [Example 83, 6-(3-Chloro-6-(difluoromethyl)-2-fluorophenyl)-N-(1-(1-(2-(5,7-dihydro-6H-pyrrolo[3,4-b]pyridin-6-yl)pyrimidin-5-yl)ethyl)-1H-pyrazol-4-yl)pyrazine-2-carboxamide]
4 | 0.0052 | 0.647 | Cc1nc(Cn2cc(NC(=O)c3cncc(-c4c(C(F)F)ccc(Cl)c4F)n3)cn2)cnc1N1CCC1 [Example 10, N-(1-((5-(Azetidin-1-yl)-6-methylpyrazin-2-yl)methyl)-1H-pyrazol-4-yl)-6-(3-chloro-6-(difluoromethyl)-2-fluorophenyl)pyrazine-2-carboxamide]
5 | 0.0024 | 1.12 | CC(c1cnc(N2C[C@H]3C[C@H]3C2C(=O)N(C)C)nc1)n1cc(NC(=O)c2cncc(-c3c(C(F)F)ccc(Cl)c3F)n2)cn1 (single isomer, unassigned) [Example 200, (1R,2S,5S or 1S,2R,5R)-3-(5-((R or S)-1-(4-(6-(3-Chloro-6-(difluoromethyl)-2-fluorophenyl)pyrazine-2-carboxamido)-1H-pyrazol-1-yl)ethyl)pyrimidin-2-yl)-N,N-dimethyl-3-azabicyclo[3.1.0]hexane-2-carboxamide]
6 | 0.0006 | 5.5 | C[C@H](F)CN(C)CC1CCCN1c1ncc(Cn2cc(NC(=O)c3cncc(-c4c(C(F)F)ccc(Cl)c4F)n3)cn2)cn1 (stereo partly drawn) [Example 147, 6-(3-Chloro-6-(difluoromethyl)-2-fluorophenyl)-N-(1-((2-(2-((((S)-2-fluoropropyl)(methyl)amino)methyl)pyrrolidin-1-yl)pyrimidin-5-yl)methyl)-1H-pyrazol-4-yl)pyrazine-2-carboxamide]
7 | 0.0084 | 1.05 | N#Cc1cc(N2CCC2)ncc1Cn1cc(NC(=O)c2cncc(-c3c(C(F)F)ccc(Cl)c3F)n2)cn1 [Example 16, N-(1-((6-(Azetidin-1-yl)-4-cyanopyridin-3-yl)methyl)-1H-pyrazol-4-yl)-6-(3-chloro-6-(difluoromethyl)-2-fluorophenyl)pyrazine-2-carboxamide]
8 | 0.0015 | 4.79 | C[C@@H](c1cnc(N2C[C@@H]3C[C@@H]3[C@@H]2C#N)nc1)n1cc(NC(=O)c2cncc(-c3c(C(F)F)ccc(Cl)c3F)n2)cn1 [Example 199, 6-(3-chloro-6-(difluoromethyl)-2-fluorophenyl)-N-(1-((S)-1-(2-((1S,2R,5R)-2-cyano-3-azabicyclo[3.1.0]hexan-3-yl)pyrimidin-5-yl)ethyl)-1H-pyrazol-4-yl)pyrazine-2-carboxamide]
9 | 0.0002 | 1.29 | CN(CC1CCCN1c1ncc(Cn2cc(NC(=O)c3cncc(-c4c(C(F)F)ccc(Cl)c4F)n3)cn2)cn1)CC1(O)CC1 (single isomer, unassigned) [Example 140, (S or R)-6-(3-Chloro-6-(difluoromethyl)-2-fluorophenyl)-N-(1-((2-(2-((((1-hydroxycyclopropyl)methyl)(methyl)amino)methyl)pyrrolidin-1-yl)pyrimidin-5-yl)methyl)-1H-pyrazol-4-yl)pyrazine-2-carboxamide]
10 | 0.0004 | 0.528 | C[C@H](CO)NC[C@@H]1[C@@H]2C[C@@H]2CN1c1ncc(Cn2cc(NC(=O)c3cncc(-c4c(C(F)F)ccc(Cl)c4F)n3)cn2)cn1 [Example 143, 6-(3-Chloro-6-(difluoromethyl)-2-fluorophenyl)-N-(1-((2-((1R,2S,5S)-2-((((R)-1-hydroxypropan-2-yl)amino)methyl)-3-azabicyclo[3.1.0]hexan-3-yl)pyrimidin-5-yl)methyl)-1H-pyrazol-4-yl)pyrazine-2-carboxamide]
11 | 0.0067 | 1.99 | O=C(Nc1cnn(Cc2cnc(N3CC4CC4C3)nc2)c1)c1cncc(-c2c(C(F)F)ccc(Cl)c2F)n1 (stereo not shown) [Example 80, N-(1-((2-(3-Azabicyclo[3.1.0]hexan-3-yl)pyrimidin-5-yl)methyl)-1H-pyrazol-4-yl)-6-(3-chloro-6-(difluoromethyl)-2-fluorophenyl)pyrazine-2-carboxamide]
12 | 0.0521 | 1.42 | O=C(Nc1cnn([C@H](CO)c2cnc(N3CCC3)nc2)c1)c1cncc(-c2c(C(F)F)ccc(Cl)c2F)n1 (single isomer, unassigned) [Example 7]
13 | 0.0006 | 5.08 | CC(c1cnc(N2CC[C@H]2CN2CC(C(C)(C)O)C2)nc1)n1cc(NC(=O)c2cncc(-c3c(C(F)F)ccc(Cl)c3F)n2)cn1 (stereo partly drawn) [Example 175, 6-(3-Chloro-6-(difluoromethyl)-2-fluorophenyl)-N-(1-(1-(2-((S)-2-((3-(2-hydroxypropan-2-yl)azetidin-1-yl)methyl)azetidin-1-yl)pyrimidin-5-yl)ethyl)-1H-pyrazol-4-yl)pyrazine-2-carboxamide]
14 | 0.027 | 2.72 | CC(c1cnc(N2CC3CC3C2)nc1)n1cc(NC(=O)c2cncc(-c3c(C(F)F)ccc(Cl)c3F)n2)cn1 (single isomer, unassigned) [Example 31, N-(1-((1S or 1R)-1-(2-(3-azabicyclo[3.1.0]hexan-3-yl)pyrimidin-5-yl)ethyl)-1H-pyrazol-4-yl)-6-(3-chloro-6-(difluoromethyl)-2-fluorophenyl)pyrazine-2-carboxamide]
15 | 0.0056 | 2.95 | O=C(Nc1cnn(Cc2cnc(N3CC4CC4C3CO)nc2)c1)c1cncc(-c2c(C(F)F)ccc(Cl)c2F)n1 (single isomer, unassigned) [Example 77, 6-(3-Chloro-6-(difluoromethyl)-2-fluorophenyl)-N-(1-((2-((1R,2S,5S or 1S,2R,5R)-2-(hydroxymethyl)-3-azabicyclo[3.1.0]hexan-3-yl)pyrimidin-5-yl)methyl)-1H-pyrazol-4-yl)pyrazine-2-carboxamide]
16 | 0.008 | 0.312 | CCc1ncc(-c2c(C(F)F)ccc(Cl)c2F)nc1C(=O)Nc1cnn(Cc2cnc(N3CCC3)nc2)c1 [Example 14, N-(1-((2-(Azetidin-1-yl)pyrimidin-5-yl)methyl)-1H-pyrazol-4-yl)-6-(3-chloro-6-(difluoromethyl)-2-fluorophenyl)-3-ethylpyrazine-2-carboxamide]
17 | 0.0339 | 0.827 | COc1ccc(C(F)F)c(-c2cncc(C(=O)Nc3cnn(Cc4cnc(N5CCC5)nc4)c3)n2)c1F [Example 208, N-(1-((2-(Azetidin-1-yl)pyrimidin-5-yl)methyl)-1H-pyrazol-4-yl)-6-(6-(difluoromethyl)-2-fluoro-3-methoxyphenyl)pyrazine-2-carboxamide]
18 | 0.0368 | 3.38 | O=C(Nc1cnn(Cc2cnc(N3CCCC3CCO)nc2)c1)c1cncc(-c2c(C(F)F)ccc(Cl)c2F)n1 (single isomer, unassigned) [Example 105, (S or R)-6-(3-Chloro-6-(difluoromethyl)-2-fluorophenyl)-N-(1-((2-(2-(2-hydroxyethyl)pyrrolidin-1-yl)pyrimidin-5-yl)methyl)-1H-pyrazol-4-yl)pyrazine-2-carboxamide]
19 | 0.02 | 8.23 | CC(c1cnc(N2Cc3cnn(C)c3C2)nc1)n1cc(NC(=O)c2cncc(-c3c(C(F)F)ccc(Cl)c3F)n2)cn1 (stereo not shown) [Example 94, 6-(3-Chloro-6-(difluoromethyl)-2-fluorophenyl)-N-(1-(1-(2-(1-methyl-4,6-dihydropyrrolo[3,4-c]pyrazol-5(1H)-yl)pyrimidin-5-yl)ethyl)-1H-pyrazol-4-yl)pyrazine-2-carboxamide]
20 | 0.0443 | 4.43 | O=C(Nc1cnn(C(c2cnc(N3CCC3)nc2)C(F)F)c1)c1cncc(-c2c(C(F)F)ccc(Cl)c2F)n1 (single isomer, unassigned) [Example 36, (S or R)-N-(1-(1-(2-(azetidin-1-yl)pyrimidin-5-yl)-2,2-difluoroethyl)-1H-pyrazol-4-yl)-6-(3-chloro-6-(difluoromethyl)-2-fluorophenyl)pyrazine-2-carboxamide]
